From PubChem BioAssay AID248 (DTP/NCI, 2004)
Values joined by “and” are separate entries in the source; they are usually repeats but may differ in a detail not shown here. Equal values may be shown once. Toxic doses and inconclusive results are not listed. Cut-off read from the data, not from the text of the source: active = T/C of 150% or more; inactive = T/C below 125%.

Test system: L1210 leukemia ip in BDF1 mice, survival T/C
Assay: NCI In Vivo Anticancer Drug Screen. Data for tumor model L1210 Leukemia (intraperitoneal) in B6D2F1 (BDF1) mice
Settings: endpoint: mean survival time, higher = longer survival
Method in brief: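 Antitumor effect is assessed in tumor-bearing animals. Survival in the compound arm is compared with a vehicle-dosed control arm and expressed as their quotient.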

[1] = dose: 15.0 mg/kg/injection, schedule: Q01DX Z (ip), vehicle: carboxymethylcellulose (CMC)
[2] = dose: 100.0 mg/kg/injection, schedule: Q04DX002 (ip), vehicle: Klucel (hydroxypropylcellulose) (HPC)
[3] = dose: 200.0 mg/kg/injection, schedule: Q04DX002 (ip), vehicle: Klucel (hydroxypropylcellulose) (HPC)
[4] = dose: 400.0 mg/kg/injection, schedule: Q04DX002 (ip), vehicle: Klucel (hydroxypropylcellulose) (HPC)
[5] = dose: 50.0 mg/kg/injection, schedule: Q01DX009 (ip), vehicle: saline
[6] = dose: 100.0 mg/kg/injection, schedule: Q01DX009 (ip), vehicle: saline
[7] = dose: 100.0 mg/kg/injection, schedule: Q04DX003 (ip), vehicle: saline
[8] = dose: 200.0 mg/kg/injection, schedule: Q01DX009 (ip), vehicle: saline
[9] = dose: 200.0 mg/kg/injection, schedule: Q04DX003 (ip), vehicle: saline
[10] = dose: 100.0 mg/kg/injection, schedule: Q01DX001 (ip), vehicle: saline
[11] = dose: 200.0 mg/kg/injection, schedule: Q01DX001 (ip), vehicle: saline
[12] = dose: 100.0 mg/kg/injection, schedule: Q01DX001 (ip), vehicle: carboxymethylcellulose (CMC)
[13] = dose: 200.0 mg/kg/injection, schedule: Q01DX001 (ip), vehicle: carboxymethylcellulose (CMC)
[14] = dose: 400.0 mg/kg/injection, schedule: Q01DX001 (ip), vehicle: carboxymethylcellulose (CMC)
[15] = dose: 50.0 mg/kg/injection, schedule: Q01DX001 (ip), vehicle: carboxymethylcellulose (CMC)
[16] = dose: 100.0 mg/kg/injection, schedule: Q04DX003 (ip), vehicle: Klucel (hydroxypropylcellulose) (HPC)
[17] = dose: 100.0 mg/kg/injection, schedule: Q04DX003 (ip), vehicle: acetone
[18] = dose: 200.0 mg/kg/injection, schedule: Q04DX003 (ip), vehicle: acetone
[19] = dose: 200.0 mg/kg/injection, schedule: Q04DX003 (ip), vehicle: Klucel (hydroxypropylcellulose) (HPC)
[20] = dose: 400.0 mg/kg/injection, schedule: Q04DX003 (ip), vehicle: Klucel (hydroxypropylcellulose) (HPC)
[21] = dose: 400.0 mg/kg/injection, schedule: Q01DX001 (ip), vehicle: saline

Measured: T/C

CC(=O)OC1C2CC3C(C2)C31 (stereo not given)
inactive: dose: 50.0 mg/kg/injection, schedule: Q01DX009 (ip), vehicle: saline with Tween-80 105 % of control | dose: 100.0 mg/kg/injection, schedule: Q01DX009 (ip), vehicle: saline with Tween-80 97 % of control | dose: 200.0 mg/kg/injection, schedule: Q01DX009 (ip), vehicle: saline with Tween-80 94 % of control

C/C(=N/N=C(N)N)C(=O)O
inactive: [1] 101 % of control | dose: 30.0 mg/kg/injection, schedule: Q01DX Z (ip), vehicle: carboxymethylcellulose (CMC) 97 % of control | dose: 60.0 mg/kg/injection, schedule: Q01DX Z (ip), vehicle: carboxymethylcellulose (CMC) 100 % of control and 101 % of control | dose: 120.0 mg/kg/injection, schedule: Q01DX Z (ip), vehicle: carboxymethylcellulose (CMC) 101 % of control and 103 % of control | dose: 240.0 mg/kg/injection, schedule: Q01DX Z (ip), vehicle: carboxymethylcellulose (CMC) 112 % of control | dose: 480.0 mg/kg/injection, schedule: Q01DX Z (ip), vehicle: carboxymethylcellulose (CMC) 98 % of control

COc1ccc(C(CC(=O)c2ccccc2)SCCN2CCOCC2)cc1 (stereo not given)
inactive: dose: 100.0 mg/kg/injection, schedule: Q04DX003 (ip), vehicle: saline with Tween-80 95 % of control | dose: 200.0 mg/kg/injection, schedule: Q04DX003 (ip), vehicle: saline with Tween-80 99 % of control

Cc1ccc(S(=O)(=O)c2ccc(C)c([N+](=O)[O-])c2)cc1[N+](=O)[O-]
inactive: dose: 100.0 mg/kg/injection, schedule: Q01DX001 (ip), vehicle: Klucel (hydroxypropylcellulose) (HPC) 104 % of control | dose: 200.0 mg/kg/injection, schedule: Q01DX001 (ip), vehicle: Klucel (hydroxypropylcellulose) (HPC) 118 % of control | dose: 400.0 mg/kg/injection, schedule: Q01DX001 (ip), vehicle: Klucel (hydroxypropylcellulose) (HPC) 96 % of control

COC(=O)C(=O)CC(=O)c1cccc([N+](=O)[O-])c1
inactive: [2] 103 % of control | [3] 95 % of control | [4] 95 % of control

Nc1nc2ncc(=O)[nH]c2c(=O)[nH]1
inactive: [5] 106 % of control | dose: 50.0 mg/kg/injection, schedule: Q04DX003 (ip), vehicle: saline 103 % of control | [6] 101 % of control | [7] 100 % of control | [8] 87 % of control | [9] 106 % of control | dose: 400.0 mg/kg/injection, schedule: Q04DX003 (ip), vehicle: saline 122 % of control

Cc1cc(C)c(SSc2c(C)cc(C)cc2C)c(C)c1
inactive: dose: 50.0 mg/kg/injection, schedule: Q01DX001 (ip), vehicle: saline 106 % of control | [10] 104 % of control | [11] 100 % of control

CC(=O)c1cc(C)c(C)cc1C
inactive: [12] 100 % of control | [13] 94 % of control | [14] 97 % of control

O=C(CC(C(=O)c1ccccc1)N1CCN(Cc2ccccc2)CC1)c1ccccc1 (stereo not given)
inactive: [15] 92 % of control | [12] 94 % of control | [13] 92 % of control | [14] 97 % of control

c1ccc(-c2nccnc2-c2ccccc2)cc1
inactive: [2] 93 % of control | [3] 107 % of control | [4] 111 % of control

CCOP(=S)(N/N=C\C(C)(C)C1CCCCC1)OCC
inactive: [12] 94 % of control | [13] 91 % of control | [14] 98 % of control

Cc1ccc(N2C(=O)c3cc4ccccc4c(-c4ccccn4)c3C2=O)cc1
inactive: dose: 12.5 mg/kg/injection, schedule: Q04DX003 (ip), vehicle: Klucel (hydroxypropylcellulose) (HPC) 103 % of control | dose: 25.0 mg/kg/injection, schedule: Q04DX003 (ip), vehicle: Klucel (hydroxypropylcellulose) (HPC) 103 % of control | dose: 50.0 mg/kg/injection, schedule: Q04DX003 (ip), vehicle: Klucel (hydroxypropylcellulose) (HPC) 103 % of control | [16] 94 % of control

O=S(=O)(/C=C\c1ccccc1)c1ccccc1
inactive: [5] 102 % of control | dose: 100.0 mg/kg/injection, schedule: Q01DX001 (ip), vehicle: acetone 97 % of control | [6] 97 % of control | [17] 105 % of control | dose: 200.0 mg/kg/injection, schedule: Q01DX001 (ip), vehicle: acetone 106 % of control | [8] 91 % of control | [18] 94 % of control | dose: 400.0 mg/kg/injection, schedule: Q01DX001 (ip), vehicle: acetone 97 % of control

O=C(Nc1ccc([N+](=O)[O-])cc1Cl)Oc1ccc(OCc2ccccc2)cc1
inactive: [16] 91 % of control | [19] 91 % of control | [20] 96 % of control

COc1ccc(CCN(C)C(C)C2C3CC4CC(C3)CC2C4)cc1OC (stereo not given)
inactive: [7] 101 % of control | [9] 94 % of control

CC(/C=N/Nc1nnc(N/N=C/C(C)=C/c2ccccc2)c2ccccc12)=C\c1ccccc1
inactive: [15] 94 % of control | [12] 102 % of control | [13] 96 % of control | [14] 112 % of control

CN=C(NCCCOC)c1ccc(NC(=O)c2ccc(C(=O)Nc3ccc(C(=NC)NCCCOC)cc3)c([N+](=O)[O-])c2)cc1
inactive: dose: 1.0 mg/kg/injection, schedule: Q01DX Z (ip), vehicle: carboxymethylcellulose (CMC) 91 % of control | dose: 1.88 mg/kg/injection, schedule: Q01DX Z (ip), vehicle: saline 92 % of control | dose: 2.0 mg/kg/injection, schedule: Q01DX Z (ip), vehicle: carboxymethylcellulose (CMC) 91 % of control | dose: 3.75 mg/kg/injection, schedule: Q01DX Z (ip), vehicle: saline 98 % of control | dose: 4.0 mg/kg/injection, schedule: Q01DX Z (ip), vehicle: carboxymethylcellulose (CMC) 92 % of control | dose: 7.5 mg/kg/injection, schedule: Q01DX Z (ip), vehicle: saline 104 % of control | dose: 8.0 mg/kg/injection, schedule: Q01DX Z (ip), vehicle: carboxymethylcellulose (CMC) 95 % of control | [1] 101 % of control | dose: 15.0 mg/kg/injection, schedule: Q01DX Z (ip), vehicle: saline 92 % of control

C[CH2][Ge]([CH2]C)[O][Ge]([CH2]C)[CH2]C
inactive: dose: 5.0 mg/kg/injection, schedule: Q04DX002 (ip), vehicle: saline with Tween-80 95 % of control | dose: 10.0 mg/kg/injection, schedule: Q04DX002 (ip), vehicle: saline with Tween-80 100 % of control | dose: 20.0 mg/kg/injection, schedule: Q04DX002 (ip), vehicle: saline with Tween-80 95 % of control

COc1ccc(Nc2ccc(O)c3c2C(=O)c2ccccc2C3=O)c(Br)c1
inactive: [10] 101 % of control | [11] 95 % of control | [21] 97 % of control

COc1cc(N=Nc2ccccc2)ccc1N
inactive: [10] 95 % of control | [17] 100 % of control and 111 % of control | [11] 112 % of control | [18] 95 % of control | [21] 96 % of control | dose: 400.0 mg/kg/injection, schedule: Q04DX003 (ip), vehicle: acetone 96 % of control and 91 % of control

COC(=O)C1=C(C)NC(=S)NC1c1ccc(N(CCCl)CCCl)cc1Cl (stereo not given)
inactive: [16] 95 % of control | [19] 95 % of control | [20] 101 % of control
